The source of these data is patent US20090104177A1, “PEPTIDES FOR INHIBITING THE INTERACTION OF PROTEIN KINASE A AND PROTEIN KINASE A ANCHOR PROTEINS” (FORSCHUNGSVERBUND BERLIN E.V., priority 2004, published 2009).

One assay deals with RIIβ subunits from rats (Rattus norvegicus, UniProt P12369). Nature of the assay: Surface plasmon resonance measurement of peptide binding to RIIβ. Background: Surface plasmon resonance follows binding to a sensor surface in real time, without labels.
Assay [1] concerns the target murine RIIα subunit of PKA (Mus musculus, UniProt P12367). Particulars: Alto et al. (2003); cited from earlier work.
The target of another assay is human RIIα subunits (Homo sapiens, UniProt P13861). Put plainly: Surface plasmon resonance measurement of peptide binding to RIIα.
Assay [2] concerns the target T1, regulatory RIIα subunits of PKA (Homo sapiens, UniProt P13861).
T1 construct: Prof; Dr. Friedrich W. Herberg, University of Kassel, Germany (obtained from an academic laboratory, not a vendor)
Nature of the assay: RII overlay of membrane-bound (SPOT) peptides, radiolabelled RIIα as probe, densitometry. In kind it is binding. Particulars: human RIIα as probe; in words. From the text:
(§1) Peptide libraries were synthesized by means of automatic SPOT synthesis on Whatman 50 cellulose membranes according to standard protocols using Fmoc chemistry and AutoSpot Robot ATE 222 (Intavis Bioanalytical Instruments AG, Cologne). The protective groups of the amino acid side chains were removed using a mixture of trifluoroacetic acid (TFA) in dichloromethane (DCM) (Frank, 1992; Kramer and Schneider-Mergener, 1998). For control, spots (about 50 nmol of peptide per spot) were cut from the cellulose membrane, removed from the membrane by treatment with 0.05 M NaOH, and analyzed using HPLC and MALDI-TOF mass spectrometry.
(§2) • 1. Regulatory RIIα (human) and RIIβ (rat) subunits of PKA, obtained from Prof. Dr. Friedrich W. Herberg, University of Kassel, Germany. • 2. Catalytic subunits of PKA, Promega, Mannheim, Germany, Order No. V5161 • 3. [γ-^32P]ATP, 5000 Ci/mmol, Amersham Biosciences, Brunswick, Germany, Order No. AA0018 • 4. Sephadex G 50, medium Pharmacia, Order No. 17-0043-01 • 5. Phosphate-buffered saline (PBS)
(§3) The ATP concentration was adjusted to 10 μM by addition of non-radioactive ATP (addition of 5 μl of a 1 mM solution). The batch was incubated on ice for another 50 min.
(§4) The reaction was quenched by adding dextran blue and removing free nucleotides. The free ATP was removed on a Sephadex G50 column.
(§5) Non-incorporated nucleotides were separated from the RII subunits by fractionation on Sephadex G 50 columns. • 1. Swelling of the Sephadex G 50 material: 20 g thereof was allowed to swell in 400 ml of PBS at room temperature overnight. Non-settled material was subsequently removed with a Pasteur pipette. The swollen material was aliquoted in 50 ml Falcon tubes and stored at 4° C. For preservation, sodium azide was added to make a final concentration of 0.01%. • 2. The material was poured into a 10 ml sterile disposable pipette sealed with a glass sphere. To settle the column bed, 50 ml of PBS containing 1 mg/ml BSA (bovine serum albumin) was allowed to pass.
(§6) Until used, the column was sealed with parafilm at the top thereof. • 3. The labelled RII subunits (500 μl), together with dextran blue (70 μl of a 20 mg/ml solution), were applied on the column (overall volume=570 μl). • 4. The sample was allowed to migrate into the matrix, followed by filling up with PBS. • 5. A short time before the dextran blue was eluted, collection of fractions was begun (2 fractions of 1.5 ml each, the other fractions 1 ml each). • 6. To determine the incorporation of ^32P, 1% (5.7 μl) of sample upstream of the column (corresponding to 1% of the radioactivity employed) and 3 μl of each fraction were used. • 7. The fractions of the first peak including the probe were combined. The incorporation rate in % was calculated and the specific activity (cpm/μg of protein) was determined.
(§7) • 1. The proteins (40 μg) were separated by means of SDS-PAGE and transferred on a PVDF membrane (PVDF: polyvinylidene fluoride) using a semi-dry electroblotting procedure. The membrane-associated proteins were stained with Ponceau S in order to identify the marker proteins on the membrane. Destaining was effected using TBS. • 2. The membrane was incubated in Blotto/BSA at 4° C. for 16 hours:
(§8) • 3. Blotto/BSA was replaced with fresh one and ^32P-labelled RII subunits were added (10^5 cpm/ml). This was incubated for 4-6 h at room temperature. • 4. The membrane was washed for 4×15 min in Blotto/BSA and for 2×10 min in 10 mM potassium phosphate buffer, pH 7.4, 0.15 M NaCl. • 5. RII-binding proteins were detected by exposition on a phosphoimager plate.
(§9) Identification of AKAP18δ-derived peptides inhibiting the interaction of AKAP proteins with the regulatory RIIα and RIIβ subunits of PKA. A: Peptides derived from the PKA binding domain of AKAP18δ were synthesized on two membranes. The membranes were incubated with radiolabelled regulatory RIIα (upper row) or RIIβ subunits (row below) of the PKA (RII overlay experiment). […]

Assay [3] has as its target T2, regulatory RIIβ subunits of PKA (Rattus norvegicus, UniProt P12369).
T2 construct: Prof; Dr. Friedrich W. Herberg, University of Kassel, Germany (obtained from an academic laboratory, not a vendor)
Put plainly: RII overlay of membrane-bound (SPOT) peptides, radiolabelled RIIβ as probe, densitometry. In kind it is binding. Particulars: in words.
From the text: as §1, §2, §3, §4, §5, §6, §7, §8, §9

The next assay concerns the target RIIα subunits of the PKA (Homo sapiens, UniProt P13861). Nature of the assay: Summary statement on RIIα binding of AKAP18δ-derived peptides. Particulars: in words. The source says: We explain this by binding via hydrogen bridges (H bridges) between peptide and RII dimer (see Fig., hydrogen bridges represented by broken lines). Correspondingly, a common feature of the peptides is the minimum number (8) of amino acids forming H bridges.

The target in assay [4] is T3, regulatory RIIβ subunit of PKA (rat) (rat, UniProt P12369 1-416, 32P-labelled with the catalytic subunit of PKA when used as probe in the RII overlay experiments).
T3 construct: Radiolabelled probe in RII overlays; format in the surface plasmon resonance measurements is not described; also called RIIβ subunit of PKA from rats
Put plainly: RII overlay on SPOT membrane, densitometry; reference AKAP18δ-wt.

Assay [5] addresses T4, regulatory RIIα subunit of PKA (human) (human, UniProt P13861 1-404, 32P-labelled with the catalytic subunit of PKA when used as probe in the RII overlay experiments).
T4 construct: Radiolabelled probe in RII overlays; format in the surface plasmon resonance measurements is not described; also called human RIIα
Described as above.

Assay [6] concerns the target T3, regulatory RIIβ subunit of PKA (rat). Put plainly: RII overlay on SPOT membrane, densitometry; references AKAP18δ-L304T and AKAP18δ-L314E.
Assay [7] deals with T4, regulatory RIIα subunit of PKA (human). The assay is described as above.
A further assay has as its system RII subunits of the PKAs. Put plainly: Summary statement on RII binding of AKAP18δ-derived negative control peptides. Particulars: negative controls; in words. From the text:
They have in common that binding is no longer present due to structural differences (1, 2) or differences in charge (3, 4).

The target in assay [8] is T4, regulatory RIIα subunit of PKA (human). Nature of the assay: RII overlay on SPOT membrane with radiolabelled RIIα.
In assay [9] the target is T3, regulatory RIIβ subunit of PKA (rat). Put plainly: RII overlay on SPOT membrane with radiolabelled RIIβ.
Assay [10] has the same target. Put plainly: surface plasmon resonance.
In assay [11] the target is T4, regulatory RIIα subunit of PKA (human). Put plainly: surface plasmon resonance.

“Also recorded” adds a separate entry of the source. No end group written: not given here.

T2 sequence (P12369 whole entry): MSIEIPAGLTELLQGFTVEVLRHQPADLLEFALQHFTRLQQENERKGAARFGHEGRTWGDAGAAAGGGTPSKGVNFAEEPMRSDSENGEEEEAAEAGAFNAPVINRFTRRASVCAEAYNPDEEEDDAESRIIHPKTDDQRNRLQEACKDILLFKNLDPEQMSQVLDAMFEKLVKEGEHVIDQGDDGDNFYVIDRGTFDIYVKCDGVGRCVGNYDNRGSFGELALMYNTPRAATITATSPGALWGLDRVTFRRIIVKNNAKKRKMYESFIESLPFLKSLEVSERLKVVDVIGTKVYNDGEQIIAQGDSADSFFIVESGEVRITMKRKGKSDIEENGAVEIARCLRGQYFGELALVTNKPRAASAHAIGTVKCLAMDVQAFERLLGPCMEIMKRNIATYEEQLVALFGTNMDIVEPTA
Chain of RIIβ subunits from rats (P12369 whole entry): as above
T3 sequence (P12369 whole entry): as above
T1 sequence (P13861 whole entry): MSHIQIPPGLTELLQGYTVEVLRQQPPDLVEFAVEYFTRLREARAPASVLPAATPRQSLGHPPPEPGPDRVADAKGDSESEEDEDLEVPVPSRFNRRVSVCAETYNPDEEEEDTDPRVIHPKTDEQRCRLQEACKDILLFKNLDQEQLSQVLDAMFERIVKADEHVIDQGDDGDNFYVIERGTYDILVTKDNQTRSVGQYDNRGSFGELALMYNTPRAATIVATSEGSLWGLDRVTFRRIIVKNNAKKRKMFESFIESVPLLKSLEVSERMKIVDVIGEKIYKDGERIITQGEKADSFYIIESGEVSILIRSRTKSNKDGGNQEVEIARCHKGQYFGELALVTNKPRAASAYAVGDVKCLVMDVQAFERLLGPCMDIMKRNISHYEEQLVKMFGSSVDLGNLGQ
Chain of human RIIα subunits (P13861 whole entry): as above
T4 sequence (P13861 whole entry): as above
Chain of RIIα subunits of the PKA (P13861 whole entry): as above
Chain of murine RIIα subunit of PKA (P12367 whole entry): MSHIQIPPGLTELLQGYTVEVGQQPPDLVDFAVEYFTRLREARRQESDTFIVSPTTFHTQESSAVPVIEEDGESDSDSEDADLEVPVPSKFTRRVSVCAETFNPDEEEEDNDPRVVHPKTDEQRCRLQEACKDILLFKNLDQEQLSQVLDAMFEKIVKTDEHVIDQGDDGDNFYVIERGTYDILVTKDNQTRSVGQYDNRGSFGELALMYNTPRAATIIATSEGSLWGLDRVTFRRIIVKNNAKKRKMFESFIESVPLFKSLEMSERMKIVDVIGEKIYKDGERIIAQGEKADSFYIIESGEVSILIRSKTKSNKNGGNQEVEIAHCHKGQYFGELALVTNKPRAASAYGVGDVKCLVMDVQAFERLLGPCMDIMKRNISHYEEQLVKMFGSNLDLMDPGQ

A word on the Kd: it is the free concentration of one partner at which half of the binding sites on the other are occupied at equilibrium, for simple one-to-one binding. Turning to “KGADLIEEAASRIVDAVIEQVKAAG [Ht31, reference compound]”, the Kd on RIIβ subunits from rats is 35 nM; in assay [1], 2.2 nM; on human RIIα subunits it was 15 nM.
In the case of `CC(C)C[C@H](NC(=O)[C@H](CCCNC(=N)N)NC(=O)[C@@H](NC(=O)[C@H](CC(C)C)NC(=O)[C@H](CCC(=O)O)NC(=O)[C@H](C)NC(=O)[C@H](CC(=O)O)NC(=O)[C@H](CCC(=O)O)NC(=O)[C@@H]1CCCN1)C(C)C)C(=O)N[C@@H](CO)C(=O)N[C@@H](CCCCN)C(=O)N[C@@H](CCCNC(=N)N)C(=O)N[C@@H](CC(C)C)C(=O)N[C@H](C(=O)N[C@@H](CCC(=O)O)C(=O)N[C@@H](CC(N)=O)C(=O)N[C@@H](C)C(=O)N[C@H](C(=O)N[C@@H](CCC(=O)O)C(=O)N[C@@H](CCCCN)C(=O)N[C@@H](C)C(=O)N[C@H](C(=O)N[C@@H](CCC(N)=O)C(=O)N[C@@H](CCC(N)=O)C(=O)N[C@@H](Cc1ccc(O)cc1)C(=O)O)C(C)C)C(C)C)C(C)C` [AKAP18δ-L314E], the “binding to RIIα subunits in RII overlay” value in [2] is on record as “stronger binding; also recorded: bind strongly”. For the same molecule, the “binding to RIIβ subunits in RII overlay” value in assay [3] is reported as “stronger binding; also recorded: bind strongly”. On RIIα subunits of the PKA, the “RIIα binding compared with peptides derived from natural AKAPs” value is given as “bind stronger than any other peptide derived from natural AKAPs”.
Consider Ht31 (peptide), for which the fold weaker binding than AKAP18δ-wt in [4] and in assay [5] was 5 fold each time. Besides, the fold weaker binding than AKAP18δ-L304T and AKAP18δ-L314E in assay [6] and in [7] was 5 to 6 fold each time.
Regarding “PEDAELVRLSKRDVENAVLKAVQQY [AKAP18δ-L308D]”, the “RIIβ binding KD” value on RIIβ subunits from rats is reported as “no binding”. Moreover, the “binding to RIIα subunits in RII overlay” value in assay [2] is on record as “weaker”. Further, the “RIIα binding KD” value on human RIIα subunits is “no binding”. For the same molecule, the “binding to RIIβ subunits in RII overlay” value in [3] is listed as “weaker”. Further, in the assay on RII subunits of the PKAs, the “binding of RII subunits of the PKAs” value is listed as “absent binding”.
Take “PEDAELVRTSKRLVENAVLKAVQQY [AKAP18δ-L304T]”: the Kd at RIIβ subunits from rats was 35 nM; on human RIIα subunits, 0.3 to 0.9 nM. In addition, in assay [2], the “binding to RIIα subunits in RII overlay” value is listed as “stronger binding; also recorded: bind strongly”. Also, the “binding to RIIβ subunits in RII overlay” value in assay [3] is given as “stronger binding; also recorded: bind strongly”. For the same molecule, the “RIIα binding compared with peptides derived from natural AKAPs” value on RIIα subunits of the PKA was “bind stronger than any other peptide derived from natural AKAPs”.
Regarding “EPEDAELVRLSKRLVENAVLKAVQQYLEETQ (listed as Homo sapiens) [AKAP18δ-RI]”, in [2], the “binding to RIIα subunits in RII overlay” value is “weaker”. Further, the “binding to RIIβ subunits in RII overlay” value in assay [3] was “weaker”. Further, the “RIIα binding compared with peptides derived from natural AKAPs” value with RIIα subunits of the PKA is “bind stronger than any other peptide derived from natural AKAPs”.
In the case of “AKAPIS [peptide developed by Alto et al. (2003); IS, in silico, reference compound]”, the “RIIβ binding KD” value at RIIβ subunits from rats is on record as “no binding”. Moreover, in assay [1], the Kd is 0.45 nM and the “affinity increased compared to the Ht31 peptide” value is listed as 5 times. The “binding to RIIα subunits in RII overlay” value in assay [2] is listed as “barely bind”. For the same molecule, the “RIIα binding KD” value at human RIIα subunits is reported as “no binding”. Also, the “binding to RIIβ subunits in RII overlay” value in assay [3] is “barely bind”.

B1: A18δRIIαRn2 (10/11) (peptide)
peptide: ANDARLVRLNKRLVENAVLKAVQQY
notes: Member of the substitution library of peptide 7 (row 10, peptide 11); also called peptide 10/11; No. EE
For B1, the binding result is given as “binds” in assay [8] and “no binding” in [9].

B2: A18δRIIαRn3 (10/12) (peptide)
peptide: ANDARLVRLPKRLVENAVLKAVQQY
notes: Member of the substitution library of peptide 7 (row 10, peptide 12); also called peptide 10/12; No. FF
With B2, the binding result in [8] is “binds”; in assay [9], “no binding”.

B3: A18δRIIβRn1 (21/4) (peptide)
peptide: ANDARLVRLSKRLVENAVLKFVQQY
notes: Member of the substitution library of peptide 7 (row 21, peptide 4); also called peptide 21/4; A18δRIIβRnl
Consider B3, for which the figures for the binding result in assay [8] and in assay [9] were “no binding” and “binds”, respectively.
PEDAELVRLSKRLVENAVEKAVQQY (also called AKAP18delta-L314E; No. W) [AKAP18δ-L314E] came in with a Kd in assay [10] of 22 nM.

B4: AKAP18δ-P (peptide)
peptide: PEDAELVRLSKRLPENAVLKAVQQY
notes: Proline-substituted negative control; also called AKAP18delta-P; No. X
For the molecule B4, the binding result in assay [10] and in assay [11] was “no binding” each time.

B5: AKAP18δ-PP (peptide)
peptide: PEDAELVRLSKRLPENAPLKAVQQY
notes: Double proline-substituted negative control; also called AKAP18delta-PP
For the molecule B5, the binding result in assay [10] and in assay [11] was “no binding” throughout.
